Entries after “also recorded” stand apart in the source; their conditions may differ. Counter-ions that a name gives are not always drawn.
Legend:
[1] = Intrinsic dissolution rate measurement (micro-dissolution, UV); type: physicochemical; settings: 20 ml, 100 rpm
[2] = known crystalline form; compared with industry limits; cited from earlier work
[3] = Dynamic Vapour Sorption (DVS) moisture sorption; type: physicochemical; settings: for total uptake of water vapours (max water adsorption, hygroscopicity): relative humidity 0% to 95% in steps of 5%, 1 h per step
Description: Moisture sorption isotherms were measured using a DVS-1 system of Surface Measurement Systems (London, UK). Differences in moisture uptake of a solid material indicate differences in the relative stabilities of the various solid forms for increasing relative humidity. The experiment was carried out at a constant temperature of 25° C.
A sample of about 15 mg of TDSU ULT-1 was spread in the DVS pan. The sample was dried at 0% RH for 7 h. Subsequently the relative humidity of the chamber was increased in steps of 5% units from 0% to 95% in order to monitor the sorption of water vapours. The samples remained in each of the steps for 1 h. Following, desorption was monitored by decreasing the relative humidity to 0% in steps of 5% units and remaining at each step for 1 h. The graph of sorption-desorption cycle is shown below. […] In a similar DVS experiment using the starting material as purchased, the total vapour intake was about 4%, which is undesirable in formulation and requires additional measures.

[4] = Intrinsic dissolution rate measurement (micro-dissolution, UV); type: physicochemical; settings: for Dissolution rate: 20 ml, 100 rpm
Description: 20 ml of high pure water was placed in 25 ml vial in the micro-dissolution thermal block by using a 20 ml volumetric pipette. A large cross stirrer was placed to the vial and the solution was stirred at a speed of 100 rpm. The 5 mm path length tip was placed from the top along with the probe connected with DAD (Diode Array Detector) analyzer. The 100% transmittance and dark spectra was collected by using high pure water. In the next step a tablet of 10 mg of Tenofovir disoproxil succinate (TDSU ULT-1) was pressed on tablet machine and placed along with the stirrer in a 25 ml vial in the micro-dissolution thermal block. The probe was placed along with the 5 mm path length tip and 20 ml of high pure water was added to the sample. The solution was stirred with a speed of 100 rpm and absorbance or the optical density was determined with respect to time by UV spectrometer. The intrinsic dissolution rate was determined by plotting concentration versus time and calculating the slope of the curve.
The same experiments were performed in a similar manner in buffered media of pH values of […]. pH buffers for dissolution pH 1.5: USP SGF without pepsin (0.05M sodium chloride adjusted to pH 1.5 with HCl) pH 3.0: 0.05 sodium di-hydrogen phosphate buffer adjusted to […] with NaOH pH 4.5: 0.05M sodium di-hydrogen phosphate buffer adjusted to pH 4.5 with NaOH pH 6.8: USP SIF without pancreatin (0.05M sodium di-hydrogen phosphate buffer adjusted to pH 6.8 with NaOH) pH 7.4: 0.05M sodium di-hydrogen phosphate adjusted to pH 7.4 with NaOH Results of intrinsic dissolution rate measurements

[5] = Stress testing in climatic chamber, physical and chemical stability by XRPD and HPLC; type: physicochemical; settings: 40° C. and 75% relative humidity
Description: A small quantity (of about 10 milligrams) of TDSU ULT-1 was placed in a Binder climatic chamber KBR115 series for stress testing under 40° C. and 75% relative humidity (RH). The material was checked for physical and chemical stability by XRPD and HPLC respectively in intervals of 2 and 4 weeks. In both cases the material was stable, i.e. no structural change or chemical degradation took place over the tested period.

Molecule	Dissolution rate ([1]; Buffer pH 3.0, 10 mg tablet) [mgmin−1 cm−2]	Dissolution rate ([1]; Buffer pH 6.8, 10 mg tablet) [mgmin−1 cm−2]	Hygroscopicity [2] [%]	total uptake of water vapours (max water adsorption, hygroscopicity) ([3]; DVS, 25° C.)	Dissolution rate ([4]; Buffer pH 1.5, 10 mg tablet) [mgmin−1 cm−2]	Dissolution rate ([4]; Buffer pH 4.5, 10 mg tablet) [mgmin−1 cm−2]	Dissolution rate ([4]; water, 10 mg tablet) [mgmin−1 cm−2]	Dissolution rate ([1]; Buffer pH 7.4, 10 mg tablet) [mgmin−1 cm−2]	physical and chemical stability (XRPD and HPLC) ([5]; 2 weeks)	physical and chemical stability (XRPD and HPLC) ([5]; 4 weeks)	hygroscopicity (conclusion from DVS data) ([3]; DVS, 25° C., 0% to 95% RH)	structure by XRPD at the end of the DVS experiment ([3]; after sorption-desorption cycle)	dissolving faster compared to TDF 1:1 ([4]; in water and in all media with pH values ranging from 1.5 to 7.4)
CC(C)OC(=O)OCOP(=O)(CO[C@H](C)Cn1cnc2c(N)ncnc21)OCOC(=O)OC(C)C [TDF 1:1, 9-[(R)-2-[[bis[[(isopropoxycarbonyl)oxy]methoxy]phosphinyl]methoxy]propyl]adenine fumarate (1:1), reference compound]	1.36	0.98	> 4	about 4%	3.29	0.99	1.12	–	–	–	–	–	–
Tenofovir Disoproxil succinate [TDSU ULT-1]	1.78	1.88	–	about 0.3%	10.00	3.55	1.42	1.09	stable	stable	no hygroscopicity; also recorded: not hygroscopic	no any changes in the structure	up to 3 times
